In US4789542A, “Radioiodinated glucose analogues for use as imaging agents” (The United States of America as represented by the United …, priority 1986, dated 1988):
Read-outs that look alike come from different tables or passages of the source.

Assay: Distribution of radioactivity in tissues of female rats after intravenous administration
Assay type: in vivo
Settings: rat; for Brain/Blood ratio / Distribution of radioactivity, Brain / Heart/Blood ratio / tissue uptake at 5 min / tissue uptake at 0.25 h / tissue uptake at 0.5 h / tissue uptake at 1 h: mean; for tissue uptake at 5 min / tissue uptake at 0.25 h / tissue uptake at 0.5 h / tissue uptake at 1 h: iv
Protocol: A test radiopharmaceutical methyl-2-deoxy-2-(E)-[^125 I]-iodovinyl-2,4,6-0-triacetyl-β-D-altropyranoside 6 was prepared to establish that a deoxy substituted iodovinyl carbohydrate could be delivered to the brain in significant levels with prolonged retention. One novel aspect of the invention was the scission of an anhydro sugar with the Grignard reagent. This technique was chosen because a variety of 2-deoxy iodovinyl carbohydrates could be prepared depending on the position of the anhydro group within the pyranose ring. The process of the synthesis is shown in the drawing.
The distribution of radioactivity in tissues of female rats at 5 minutes, 15 minutes, 30 minutes and 60 minutes after intravenous administration of the iodinated compound is shown in the following table. The level of accumulation of radioactivity in the brain after injection of this agent was a significant 1.65 percent dose/g at 5 minutes but the blood levels were also high resulting in blood ratios of 1.6/1 at 5 minutes.

Compound: CO[C@@H]1O[C@H](COC(C)=O)[C@@H](OC(C)=O)[C@@H](OC(C)=O)[C@@H]1/C=C/[125I] [methyl-2-deoxy-2-(E)-[^125 I]-iodovinyl-2,4,6-0-triacetyl-β-D-altropyranoside]
- Brain/Blood ratio (5 min): 1.5666
- Distribution of radioactivity, Brain (5 min): 1.6525 percent dose/g
- Heart/Blood ratio (5 min): 1.0776
- Brain/Blood ratio (15 min): 1.2775
- Heart/Blood ratio (15 min): 1.1490
- Brain/Blood ratio (30 min): 1.1035
- Heart/Blood ratio (30 min): 1.0809
- Brain/Blood ratio (60 min (1 hr)): 1.1087
- Heart/Blood ratio (60 min (1 hr)): 1.0408
- Distribution of radioactivity, Brain (60 min (1 hr), 60 min): 0.7237 percent dose/g
- Brain retention at 60 minutes compared with the peak uptake at 5 minutes (60 min vs 5 min): 50%
- tissue uptake at 5 min (blood, 5 min, read-out: Distribution of radioactivity, Blood): 1.05 %ID/g
- tissue uptake at 0.25 h (blood, 15 min, read-out: Distribution of radioactivity, Blood): 0.933 %ID/g
- tissue uptake at 0.5 h (blood, 30 min, read-out: Distribution of radioactivity, Blood): 0.0037 %ID/g
- tissue uptake at 1 h (blood, 60 min (1 hr), read-out: Distribution of radioactivity, Blood): 0.653 %ID/g
- tissue uptake at 5 min (brain, 5 min, read-out: Distribution of radioactivity, Brain): 1.65 %ID/g
- tissue uptake at 0.25 h (brain, 15 min, read-out: Distribution of radioactivity, Brain): 1.19 %ID/g
- tissue uptake at 0.5 h (brain, 30 min, read-out: Distribution of radioactivity, Brain): 0.891 %ID/g
- tissue uptake at 1 h (brain, 60 min (1 hr), read-out: Distribution of radioactivity, Brain): 0.72 %ID/g
- tissue uptake at 5 min (kidney, 5 min, read-out: Distribution of radioactivity, Kidney): 1.55 %ID/g
- tissue uptake at 0.25 h (kidney, 15 min, read-out: Distribution of radioactivity, Kidney): 1.57 %ID/g
- tissue uptake at 0.5 h (kidney, 30 min, read-out: Distribution of radioactivity, Kidney): 1.7 %ID/g
- tissue uptake at 1 h (kidney, 60 min (1 hr), read-out: Distribution of radioactivity, Kidney): 1.57 %ID/g
- tissue uptake at 5 min (liver, 5 min, read-out: Distribution of radioactivity, Liver): 1.39 %ID/g
- tissue uptake at 0.25 h (liver, 15 min, read-out: Distribution of radioactivity, Liver): 1.37 %ID/g
- tissue uptake at 0.5 h (liver, 30 min, read-out: Distribution of radioactivity, Liver): 1.23 %ID/g
- tissue uptake at 1 h (liver, 60 min (1 hr), read-out: Distribution of radioactivity, Liver): 1.05 %ID/g
- tissue uptake at 5 min (lung, 5 min, read-out: Distribution of radioactivity, Lung): 1.19 %ID/g
- tissue uptake at 0.25 h (lung, 15 min, read-out: Distribution of radioactivity, Lung): 1.03 %ID/g
- tissue uptake at 0.5 h (lung, 30 min, read-out: Distribution of radioactivity, Lung): 0.833 %ID/g
- tissue uptake at 1 h (lung, 60 min (1 hr), read-out: Distribution of radioactivity, Lung): 0.663 %ID/g
- tissue uptake at 5 min (thyroid, 5 min, read-out: Distribution of radioactivity, Thyroid): 20.6 %ID/g
- tissue uptake at 0.25 h (thyroid, 15 min, read-out: Distribution of radioactivity, Thyroid): 18.9 %ID/g
- tissue uptake at 0.5 h (thyroid, 30 min, read-out: Distribution of radioactivity, Thyroid): 25.7 %ID/g
- tissue uptake at 1 h (thyroid, 60 min (1 hr), read-out: Distribution of radioactivity, Thyroid): 33.5 %ID/g
- Retention in the brain (up to 60 min): prolonged retention in the brain
- Stability to in vivo deiodination (from low thyroid accumulation) (up to 60 min): demonstrated the stability of this agent to in vivo deiodination
